Article PMC6123382, “Phosphorylation of the Amyloid-Beta Peptide Inhibits Zinc-Dependent Aggregation, Prevents Na,K-ATPase Inhibition, and Reduces Cerebral Plaque Deposition” (Frontiers in Molecular Neuroscience, 2018)
Where no end group is shown, it is not given here.

Tests used:
[1] = target: Na^+/K^+-ATPase (α1β1 isozyme) (Anas platyrhynchos, UniProt Q6TG02+Q7ZYV1); assay: Isothermal titration calorimetry of binding to Na+/K+-ATPase; design: species or system duck (salt glands); conditions: ITC, 25°C
Procedure: The purified preparation of Na^+/K^+-ATPase (α1β1 isozyme) was obtained from duck salt glands as described elsewhere ([Petrushanko et al., 2016]).
The thermodynamic parameters of amyloid peptides binding to Na^+/K^+-ATPase were measured using a MicroCal iTC200 instrument, as described elsewhere ([Mitkevich et al., 2012]; [Petrushanko et al., 2014]). Experiments were carried out at 25°C in 10 mM imidazole buffer (pH 7.5), containing 130 mM NaCl, 30 mM KCl, 3 mM MgCl2. Aliquots (2.6 μl) of ligands were injected into a 0.2-ml cell containing protein solution to achieve a complete binding isotherm. Protein concentration in the cell ranged from 10 to 20 μM, and ligand concentration in the syringe ranged from 100 to 200 μM. The resulting titration curves were fitted using the MicroCal Origin software, assuming one set of binding sites. Affinity constants (Ka), enthalpy variations (ΔH) and stoichiometry of binding (N) were determined and the Gibbs energy (ΔG) and entropy variations (ΔS) were calculated from the equation: ΔG = −RTlnKa = ΔH-TΔS.

[2] = cited from earlier work
Description: Recently, it has been shown that Aβ undergoes phosphorylation at Ser8 both in vitro and in vivo ([Kumar et al., 2011], [2013]). […] Recently, pS8-Aβ was obtained in vitro by Aβ phosphorylation with protein kinase A and was subsequently identified in vivo ([Kumar et al., 2011], [2013]). Based on the oligomeric state of pS8-Aβ derived from brain tissue of A ...

[3] = target: Na+/K+-ATPase (α1β1 isozyme) from duck salt glands (duck); assay: ITC; peptide (100-200 μM, syringe) injected into Na+/K+-ATPase (10-20 μM, cell); 25°C; 10 mM imidazole pH 7.5, 130 mM NaCl, 30 mM KCl, 3 mM MgCl2; fit with one set of binding sites
[4] = 10 mM imidazole buffer (pH 7.5), 130 mM NaCl, 30 mM KCl, 3 mM MgCl2
[5] = pH 7.5, calculated from ΔG = −RTlnKa = ΔH-TΔS

LVFFAEDVGSNKGAIIGLMVGGVVIA [Aβ17–42]
detectability of binding to Na+,K+-ATPase [1, 4]: Binding was detectable
ΔH [1, 4]: -2.27 kcal/mol
Ka ([1]; 10 mM imidazole buffer (pH 7.5), 130 mM NaCl, 30 mM KCl, 3 mM MgCl2, one set of binding sites): 260000 M⁻¹
TΔS [1, 5]: 5.13 kcal/mol
ΔG [1, 5]: -7.4 kcal/mol

pS8-Aβ40: Aβ40 phosphorylated at Ser8 (literature)
aggregation in vitro ([2]; absence of divalent cations, ref Kumar et al. (2011)): accelerated aggregation

pS8-Aβ: phosphorylated Ser8-containing β-amyloid peptide (length not stated, literature)
aggregation in absence of zinc ions ([2]; in vitro, absence of zinc ions, ref Rezaei-Ghaleh et al., 2016, Jamasbi et al., 2017): fast-aggregating peptide species

β-amyloid peptide 17–42 (Aβ17-42), C-terminal hydrophobic fragment
Ka [3]: 260000 M⁻¹
Kd [3]: 3.8 µM
dH [3]: -2.27 kcal/mol
